Measurements reported in patent US6291470A, “Indole derivatives process for producing the same and medicinal uses of the same” (Toray Industries, Inc., priority 1992, dated 2001).
Read-outs that look alike come from different tables or passages of the source.

Assays:
δ-opioid receptor [1] = details: Portoghese, J. Med. Chem. 33, 1547 (1990); cited from earlier work
δ-opioid receptor [2] = target: T1, δ-opioid receptor (Mus musculus, UniProt P32300); assay: Change in δ-antagonist activity against DPDPE with time in mouse vas deferens (MVD); details: for Ratio of IC50 Values / Kb: 173 and NTI at 20 nM, 174 and 5'-NTII at 100 nM; for Kb: read-out: Ke
T1 construct: from tissue; host or cells: vas deferens of male ddy mice
T1 sequence (P32300 whole entry): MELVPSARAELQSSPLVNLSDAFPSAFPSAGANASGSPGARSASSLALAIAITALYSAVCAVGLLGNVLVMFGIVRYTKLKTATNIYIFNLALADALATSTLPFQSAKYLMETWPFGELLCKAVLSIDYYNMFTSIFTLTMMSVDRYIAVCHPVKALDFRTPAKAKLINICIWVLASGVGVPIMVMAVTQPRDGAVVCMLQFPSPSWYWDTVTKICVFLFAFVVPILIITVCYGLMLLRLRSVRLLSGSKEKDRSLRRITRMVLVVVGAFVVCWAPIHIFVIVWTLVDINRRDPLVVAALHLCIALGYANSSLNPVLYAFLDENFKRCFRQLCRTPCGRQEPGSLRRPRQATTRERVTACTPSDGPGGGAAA
Protocol: In this experiment, ddy male mice were used. In a Magnus' tube which is filled with Krebes-Henseleit solution (NaCl […]; KCl 4.7 mM; CaCl2 2.5 mM; KH2 PO4 1.1 mM; NaHCO3 25 mM; glucose 11 mM) kept at 37° C., and into which an atmosphere consisting of 5% carbon dioxide and 95% oxygen was flown, vas deferens taken from the animals was suspended. Electric stimulation was applied through ring-shaped platinum electrodes mounted on the upper and lower portions of the tube at a frequency of 0.1 Hz and 5.0 mS duration. The contraction of the tissue was recorded on polygraph using isometric transducer.
Then 100 nM of the test compound was added. Twenty minutes later, DPDPE was begun to be added cumulatively. The ratio of IC50 values in the presence and absence of the test compound, Ke value (the molar concentration of the test compound necessary for translating the dose-effect curve to the curve of twice dose) and pA2 value were determined. The pA2 value was determined by the method of Shild et al (Shild, H. O., Br. J. Pharmac. Chamotehr., 4, 277 (1949)). That is, the logarithm of the test compound (log[test compound]) was plotted along the abscissa and the logarithm of the value obtained by subtracting 1 from the ratio of IC50 values was plotted in the presence and absence of the test compound [log(dose ratio-1)] along the ordinate. The pA2 value was determined from the value on the abscissa when the value on the ordinate of the obtained line is 0.
Using MVD, the antagonist activities of compounds 173 and 174 against DPDPE were determined. The ratio of IC50 values, Ke values and pA2 values at 15 minutes, 30 minutes and 1 hour from the addition of the test compounds were calculated. Since the concentrations of the test compounds are different, the reciprocals of Ke values were plotted in FIGS. 1 and 2.

Compound: Oc1ccc2c3c1O[C@H]1c4[nH]c5ccc(N=C=S)cc5c4C[C@@]4(O)[C@@H](C2)N(CC2CC2)CC[C@]314 [5'-NTII, reference compound]
- antagonist activity and selectivity to δ-opioid receptor (in words) (δ-opioid receptor [1]): antagonist activity and selectivity to δ-opioid receptor are low
- Ratio of IC50 Values (δ-opioid receptor [2]; 15 min): 3.28
- Kb (δ-opioid receptor [2]; 15 min): 43.9 nM
- change of antagonist activity with time (in words) (δ-opioid receptor [2]; 15 min to 1 hour): increased with time
- Ratio of IC50 Values (δ-opioid receptor [2]; 30 min): 7.47
- Kb (δ-opioid receptor [2]; 30 min): 15.5 nM
- Ratio of IC50 Values (δ-opioid receptor [2]; 60 min): 9.36
- Kb (δ-opioid receptor [2]; 60 min): 12 nM
